Patent US20060167229A1, “Biologically active peptide conjugates” (priority 2002, published 2006)
Several values for one entry are separate records, joined by “and”; a condition that tells them apart may be missing. Equal entries are not always repeated. Marks after values point to notes of the source that are not given here. Ends that are not written are not given here.

How the values were obtained:
[1] = tested on: interferon (IFN); design: species or system BALB/c mice; conditions: mouse, in vivo; for activity of T lymphocyte in secreting IFN, X ± SD (IU): ip
[2] = tested on: T lymphocyte; experiment: T lymphocyte transformation test (ConA-stimulated spleen cells of treated mice, MTT); assay type: in vivo, BALB/c mice; conditions: for X ± SD (stimulation index): healthy mice, saline 1.3 ± 0.1; for effect on T lymphocyte transformation (summary): statistically significant difference from saline in any of the dosage groups 0.5-500 μg/kg/day
Procedure: The above substances were all dissolved in 0.5 ml saline and injected intraperitoneal (i.p.) for 15 continuous days, once per day.
Ten mice per group. The day after the last test substance administration, the mice were sacrificed by cervical dislocation. The spleen was isolated aseptically and manually dispersed in cold D-Hank's solution using an injection needle. The dispersed cell suspension was further sieved through a 100 gauge 150 μm diameter stainless steel sieve. After centrifugation at 200 g for 10 minutes, the supernatant was discarded. The cell pellet was re-suspended in 10 volume of Tris-NH4Cl buffer and then kept standing still for 10 minutes at room temperature. The suspended cells were collected by centrifugation at 150 g for 10 minutes. The cells were washed 2-4 times with cold D-Hank's solution by re-suspending and collecting by centrifugation with condition as described above. The washed cells were then diluted to the desired cell densities by RPMI-1640 culture medium, containing 10% fetal bovine serum.
Spleen cells of density 1×10^6/ml were placed onto a 96 wells cell culture plate, 100 μL/well, three parallel wells each of the assay sample and control sample per mouse. To the assay wells, 100 μl/well ConA of 100 μg/ml in RPMI-1640 was added, and […] plain RPMI-1640 was used for the controls. The cells were incubated for 66 hrs at 37° C., 5% CO2. The cells were then pelleted by centrifugation at 150 g for 10 minutes.
50 μl/well MTT of 1 mg/ml in RPMI-1640 was added to the cell pellet and the cells re-suspended by shaking for 2 minutes. The incubation was continued for 4 hours. The supernatant was discarded after centrifugation at 150 g for 10 minutes. 120 μl 40 mM HCl-2-propanol was added to the cell pellet and shaken for 3 minutes. […]
Each mouse formed three assay wells and three control wells. The Stimulation Index (SI) of each mouse was obtained by first deriving the average OD of the three parallel wells, then dividing the value of the assay wells by the control wells.

[3] = tested on: spleen; experiment: Immunity organ weight test, spleen index; assay type: in vivo, BALB/c mice; conditions: for weight of spleen (spleen index), X ± SD (%): healthy mice, saline 0.53 ± 0.05; for effect on the weight of the spleen (summary): statistically significant difference from saline in any of the dosage groups 0.5-500 μg/kg/day
Procedure: One day after the last test substance administration (day 16), the liver, spleen, and thymus gland were separated and blotted dry with filter paper and weighed. The phagocytosis index α was calculated as below: α=(^3√{square root over ( )}K)(W÷WLS)
Spleen index (%)=(spleen weight/body weight)×100%

[4] = tested on: Sheep red blood cells (SRBC); experiment: Humoral immunity (SRBC hemolysis index) of mice bearing transplanted B16 melanoma; assay type: in vivo, C57BL/6 mice; design: key: index = (OD540 sample ÷ reference OD540) × 500; conditions: saline 19.0 ± 9.1
Procedure: Intraperitoneal injection, once per day. […] Treatment of all groups with testing substance lasted for 30 days or until the animal died unless otherwise specified.
Stock B16 mouse melanoma cells were incubated in DMEM/F12 medium supplemented with 10% fetal bovine serum, 37° C./5% CO2 for 72 hrs, then washed 3-4 times with Hank's solution. The cell concentration was adjusted to 1×10^5 per ml with Hank's solution and 0.1 ml of the cell suspension was injected via the tail vein into the testing mice to generate the B16 melanoma bearing animal model. Treatment with test substance started as described in section Method 1.
Sheep red blood cells (SRBC) were prepared by collecting blood from the cervical vein and put into a sterile flask with glass beads. The flask was shaken for 3 minutes and the blood then mixed with Alsever solution (glucose 2.05 g, NaCl 0.4 g, […] 0.8 g, adjust to 100 ml with distilled water) and stored at 4° C. Immediately before use, samples were centrifuged at 130 g, 5 minutes to collect the SRBC. The cells were washed two times by re-suspension and centrifugation in normal saline. Then the cell pellet was collected by centrifugation at 180 g for 10 minutes and re-suspended in saline to make the final working SRBC suspension, 2% (v/v).
Complement was prepared by adding 10 volumes of fresh Cavy serum into one volume centrifuge packed SRBC, and then gently shaken for 30 minutes at 4° C. The SRBC was removed by centrifugation at 200 g for 10 minutes. 10 volumes of normal saline were added to obtain the working complement solution.
On the testing animals, on the 27th date of test substance treatment, 0.2 ml of the working SRBC cell suspension was injected into each animal to raise antibody. On the day after the last test substance administration, blood was collected from the eye canthus and left at room temperature for one hour for serum exudation. After centrifugation at 200 g for 10 minutes, the collected serum was diluted by 500 times with normal saline.
To 1 ml diluted mouse serum of each mouse, 0.5 ml SRBC suspension was added. Ice cold. Then 1 ml working complement solution was added and incubated at 37° C. water bath for 10 minutes. Reactions were terminated by ice cold. Samples were then centrifuged at 200 g for 10 minutes to obtain the supernatant.
To 1 ml of this supernatant, 3 ml Drabkin solution was added and left at room temperature for 10 minutes. OD540 nm was obtained.
Reference OD540 nm was obtained by mixing 0.25 ml SRBC suspension with Drabkin solution to 4 ml and placed at room temperature for 10 minutes before OD540 nm was taken. Hemolysis index=(OD540 nm of test sample÷reference OD540 nm)×500 6.2 After the Humoral Immunity Study, the Mice were Killed by Cervical Vertebra Dislocation. Postmortem Examination of the Animals was Performed. The Pathological Changes were Recorded, and the Numbers of Melanoma Lung Metastasis Foci Were Counted. Results

[5] = peptide 5 μg/kg/day i.p. 15 days (IFN-γ, IL-2 3×10^5 IU/kg/day)
[6] = peptide 50 μg/kg/day i.p. 15 days (IFN-γ, IL-2 3×10^5 IU/kg/day)
[7] = peptide 500 μg/kg/day i.p. 15 days
[8] = peptide 0.5 μg/kg/day i.p. 15 days (IFN-γ, IL-2 3×10^5 IU/kg/day)
[9] = peptide 500 μg/kg/day i.p. 15 days (IFN-γ, IL-2 3×10^5 IU/kg/day)
[10] = Table 28, peptide 5 μg/kg/day (so in the source) i.p. 15 days (IFN-γ, IL-2 3×10^5 IU/kg/day)

Row | Substance | effect on the secretion of IFN by T lymphocytes (summary) [1] | activity of T lymphocyte in secreting IFN, X ± SD (IU) [1] | X ± SD (stimulation index) [2, 5] | X ± SD (stimulation index) [2, 6] | effect on T lymphocyte transformation (summary) [2] | weight of spleen (spleen index), X ± SD (%) [3, 7] | effect on the weight of the spleen (summary) [3] | Hemolysis index ([4]; dose 0.5 μg/kg) | Hemolysis index ([4]; dose 5 μg/kg) | Hemolysis index ([4]; dose 50 μg/kg) | Hemolysis index ([4]; dose 500 μg/kg) | X ± SD (stimulation index) [2, 8] | X ± SD (stimulation index) [2, 9] | weight of spleen (spleen index), X ± SD (%) [3, 10] | weight of spleen (spleen index), X ± SD (%) [3, 8] | weight of spleen (spleen index), X ± SD (%) ([3]; Table 30, peptide 5 μg/kg/day i.p. 15 days)
1 | FNFVPP [CMS003] | enhance | 106 ± 16 IU | 1.6 ± 0.2 | 2.2 ± 0.5*^@^ | enhance | 0.40 ± 0.04 % | decrease | 61.6 ± 26.9*^$ | 37.2 ± 15.9*^$ | 38.7 ± 13.5*^$ | 35.9 ± 13.0*^$ | – | – | – | – | –
2 | IGMESAGIHETTY [CMS016] | enhance | 162 ± 19*^@^ IU | – | – | – | – | – | – | – | – | 43.3 ± 29.9 | – | – | – | – | –
3 | KAVGHLDDLPGAL [CMS008] | – | – | – | – | enhance | – | decrease | 42.7 ± 18.4*^$ | 38.9 ± 12.0*^$ | 37.1 ± 16.7*^$ | 50.1 ± 17.8*^$ | 1.7 ± 0.3 | 1.7 ± 0.1 | 0.39 ± 0.08 % | – | –
4 | LGMQACGIHETTY [CMS012] | enhance | 86 ± 9 IU | – | – | enhance | – | – | – | – | – | – | – | 1.6 ± 0.2 | – | – | –
5 | LRVAPQQHPTL [CMS009] | enhance | 121 ± 15*^ IU | – | – | enhance | 0.41 ± 0.03 % | decrease | – | – | – | – | – | 1.7 ± 0.2 | – | – | –
6 | PTTKTYFPHF [CMS001] | enhance | 110 ± 15 IU | 1.7 ± 0.2 | 2.2 ± 0.5*^@^ | enhance | 0.43 ± 0.07 % | decrease | 51.0 ± 16.2*^$ | 41.3 ± 17.7*^$ | 45.0 ± 31.9*^$ | 36.0 ± 10.2*^$ | – | – | – | 0.40 ± 0.05 % | –
7 | Phe Val Asn Asp (FVND; listed as Sus scrofa) [CMS035] | – | – | – | – | – | – | – | – | 38.9 ± 21.2*^$ | 44.7 ± 22.7*^$ | 40.5 ± 25.8 | – | – | – | – | –
8 | Pro Gln Asn Phe (PQNF; printed: Pro Gln Asn Phe) [CMS034] | – | – | 1.5 ± 0.2 | – | enhance | – | – | 50.8 ± 18.4*^$ | 43.0 ± 11.7*^$ | 30.2 ± 10.9 | – | – | – | – | – | –
9 | Pro Ser Ile Vat Gly Arg Pro Arg His Gln Gly Val Met (PSIVGRPRHQGVM; listed as Sus scrofa) [CMS015] | – | – | – | – | enhance | 0.36 ± 0.07 % | decrease | – | – | – | – | – | 1.9 ± 0.3*^@^ | – | – | 0.38 ± 0.15 %
10 | RVAPQQHPTL [CMS011] | enhance | 89 ± 18 IU | – | – | enhance | 0.41 ± 0.04 % | decrease | 32.0 ± 14.7 | – | – | 34.4 ± 19.4 | 1.6 ± 0.4 | – | – | – | –
11 | Tyr Ser Leu (YSL; listed as Sus scrofa) [CMS024] | – | – | – | – | – | 0.34 ± 0.05 % | decrease | 43.0 ± 10.7*^$ | 42.2 ± 11.8*^$ | 27.8 ± 9.1 | 30.1 ± 10.0 | – | – | – | – | –
12 | Tyr Ser Phe (YSF; listed as Sus scrofa) [CMS022] | enhance | 145 ± 13*^@^ IU | – | – | – | – | – | – | – | – | – | – | – | – | – | –
13 | VAPEEHPTLLTEAPLNPK [CMS010] | enhance | 167 ± 13*^@^ IU and 142 ± 18*^@^ IU | – | – | enhance | – | decrease | 34.9 ± 10.5*^$ | 51.0 ± 14.6*^$ | 39.6 ± 7.7*^$ | 50.1 ± 16.7*^$ | 1.7 ± 0.3 | 2.0 ± 0.3*^@^ | 0.38 ± 0.05 % | – | –
14 | VGMGQKDSY | – | – | – | – | enhance | 0.63 ± 0.08 % | increase | 42.0 ± 12.0*^$ | 35.4 ± 15.1*^$ | 28.3 ± 7.6 | – | – | 1.8 ± 0.3 | – | – | –
15 | VGMGQKDSYV [CMS020] | – | – | – | – | – | – | increase | – | – | – | – | – | – | – | 0.68 ± 0.09*^@^ % | –
